Structures can show the parent of a compound that is named as a salt. Where two headings read alike, the source gives them in different places.
Experiments:
[1] = Toxicology studies in dogs: GI tolerance (emesis, loose stool, GI lesions) and isatoribine exposure
Method: (§1) Formal toxicology studies of intravenously administered isatoribine and orally administered isatoribine and val-isatoribine were conducted in beagle dogs.
(§2) In each case the compound was administered as a solution, by gavage or by intravenous infusion. Multiple parameters were assessed, as is customary in a toxicology study. In the studies providing higher potential exposure to isatoribine, the plasma concentration of isatoribine was assessed by a LC/MS method.

[2] = test system: Interferon Alpha (Mu-IFN-α); assay: Murine interferon alpha (Mu-IFN-α) in plasma of mice after oral dosing; type: in vivo; details: for mice with detectable interferon in plasma, of the mice used: mice of Tables 1, 2 and 3, oral dosing
Excerpt: The normal mouse provides a useful system for the assessment of the degree to which the inventions described herein provide material improvement in the oral delivery of 1 (isatoribine). Not only can one measure the plasma concentrations of isatoribine arising from oral administration of the said prodrug(s) but also the extensive immunological research conducted in the mouse has provided reagents suitable for measuring the levels of interferon alpha, a cytokine of interest reflecting one of the desired biologic activities of isatoribine. […] Table 1 records the results of an assay for murine interferon alpha in the plasma of mice that were dosed two times with isatoribine, formulated in bicarbonate, at a level of 50 mg/kg by the oral route. […] Table 2 records the results of assays for murine interferon alpha in the plasma of mice that first were dosed with bicarbonate and then four hours later were dosed orally with isatoribine, formulated in bicarbonate, at a level of 50 mg/kg. Interferon was reported in the plasma from four mice, including two that had received the bicarbonate vehicle dose. […] Table 3 records the results of assays for murine interferon alpha in the plasma of mice that were dosed orally with val-isatoribine, dissolved in bicarbonate, at a dose that is equivalent to 50/mg/kg of isatoribine on a molar basis. […] Interferon was detected in all mice assayed at a given time point, indicating the reliability of the effect following val-isatoribine administration. […] The data tabulated in Tables 1, 2, and 3 may be also considered from the point of view of the incidence of measurable interferon levels.

[3] = dog, in vivo, iv, 12.5 mg/kg
Method: as §1, §2

[4] = cited from earlier work
[5] = test system: Cynomolgus monkey hepatocytes; details: 2 h, 10 μm/ml
Method: Hepatocyes often are used to assess the degree to which a compound may be transformed in the body of an animal, and it is known that such transformations may vary with hepatocytes from different species in a way that reflects metabolism in the whole animal.
Cynomolgus monkey hepatocytes were purchased from a commercial supplier and used within 48 hours of preparation. Compounds were prepared in culture media at a concentration of 10 μm/ml and incubated in a standard system with 1,000,000 viable hepatocytes per ml for 2 hours at 37 degrees. The extent of conversion at the end of the incubation period was assessed by measuring 1 by LC-MS/MS.

Caco-2 cells = details: human
Method: In vitro drug transport assays using differentiated and P-glycoprotein-expressing Caco2 cell monolayers are widely used to predict absorption rates of candidate drug compounds across the intestinal epithelial cell barrier. See, e.g., Hilgers, A. R. et al., Pharm.
Caco-2 cells (obtained from ATCC) are grown to confluency on permeable membranes in chambers allowing access to both the apical and basolateral sides of the membrane. The intact nature of the resulting cellular membrane is assessed using transepithelial electrical resistance. The test compound is added at a known concentration to the apical side of the membrane and the rate of appearance of the compound on the basolateral side of the membrane is assessed by analysis using either HPLC or LC-MS/MS.

[6] = Systemic exposure to isatoribine after oral administration to beagle dogs (plasma HPLC-MS/MS); type: in vivo; details: at both 10 and 50 mg/kg dose
Method: The effect of a prodrug (val-isatoribine, 3) on the systemic exposure to isatoribine (1) after oral administration to beagle dogs was investigated. Isatoribine was prepared in sodium bicarbonate solution.
Four male and four female adult beagle dogs weighing between 15 to 27 kg and approximately 1-2 years old were used at the beginning of the study. The animals were divided into 2 groups of 2 males and 2 females each. The test material was administered by gavage on Days 1 and 8, allowing a 7-day washout period between administrations. Blood samples (2 mL) were collected from each animal at predose, 15, 30 minutes, 1, 2, 3, 4, 6, 8 and 10 hours into lithium heparin tubes after each dosing. The plasma was frozen at −70° C. until analysis. The plasma was analyzed for isatoribine by an HPLC-MS/MS assay.
The ratios for the key pharmacokinetic parameters defining the maximum concentration (Cmax) and total exposure as measured by the area under the time-concentration curve (AUC) for the prodrug and the bicarbonate solution at the 50 mg/kg dose are summarized in Table 6.

[7] = IV isatoribine, 25 mg/kg applied dose
[8] = dogs, oral isatoribine, 2.5 mg/kg isatoribine equivalent applied dose
[9] = oral val-isatoribine, 8.1 mg/kg isatoribine equivalent applied dose
[10] = oral val-isatoribine, 16 mg/kg isatoribine equivalent applied dose
[11] = oral val-isatoribine, 32 mg/kg isatoribine equivalent applied dose
[12] = oral val-isatoribine, 64 mg/kg isatoribine equivalent applied dose

## CN[C@H](C(=O)OC[C@H]1O[C@@H](n2c(=O)sc3c(O)nc(N)nc32)[C@H](O)[C@@H]1O)C(C)C (as salt: hydrochloride) [Compound 11, 5-Amino-3-(5′-O-[α-L-N-methylvalinyl]-β-D-ribofuranosyl)thiazolo[4,5-d]pyrimidine-2,7-dione Hydrochloride]
other
  melting point: > 180 °C (dec.)

## Nc1nc(N2CCCC2)c2sc(=O)n([C@@H]3O[C@H](CO)[C@@H](O)[C@H]3O)c2n1 [Compound 23, 5-Amino-7-pyrrolidino-3-β-D-ribofuranosylthiazolo[4,5-d]pyrimidin-2-one]
other
  melting point: > 112.4 °C (dec.)

## Nc1nc2c(sc(=O)n2[C@@H]2O[C@H](CO)[C@@H](O)[C@H]2O)c(=O)[nH]1 [Compound 1, 5-amino-3-β-D-ribofuranosylthiazolo[4,5-d]pyrimidine-2,7-dione, reference compound]
[1]; [7]
  Emesis or loose stool: Neg.
  GI lesions or irritation: Neg.
[1]; IV isatoribine, 50 mg/kg applied dose
  GI lesions or irritation: Neg.
[1]; IV isatoribine, 100 mg/kg applied dose
  GI lesions or irritation: Neg.
[1]; intravenously administered isatoribine
  GI tract lesions at necropsy or histopathologic evaluation (result in words): No lesions were seen in the GI tract
[2]; mice dosed two times with isatoribine in bicarbonate, 50 mg/kg oral, interval of four hours
  interferon in plasma (result in words): no interferon was measurable
[2]
  mice with detectable interferon in plasma, of the mice used: 4 of the 114
[3]
  Emesis or loose stool: Neg.
  GI lesions or irritation: Neg.
[4]; [8]
  Emesis or loose stool: Neg.
  GI lesions or irritation: Neg.
[4]; dogs, oral isatoribine, 5 mg/kg isatoribine equivalent applied dose
  GI lesions or irritation: Neg.
[4]; orally administered isatoribine at 10 mg/kg
  dogs with multiple, scattered red lesions on the intestinal mucosa (gross histopathologic evaluation): four of eight dogs

## CNc1nc(N)nc2c1sc(=O)n2[C@@H]1O[C@H](CO)[C@@H](O)[C@H]1O [Compound 18]
other
  melting point: > 108 °C

## CC(=O)OC[C@H]1O[C@@H](n2c(=O)sc3cnc(N)nc32)[C@H](OC(C)=O)[C@@H]1OC(C)=O [Compound 78, 5-Amino-3-(2′,3′,5′-tri-O-acetyl-β-D-ribofuranosyl)-3H-thiazolo[4,5-d]pyrimidin-2-one]
[5]
  Monkey Hepatocytes: 20%
  conversion to 1 compared with 79 (result in words): more extensively converted to 1 than is 79
Caco-2 cells
  Caco2 transport compared with 79 (result in words): significantly improved transport over 79

## CC(C)[C@H](N)C(=O)OC[C@H]1O[C@@H](n2c(=O)sc3c(O)nc(N)nc32)[C@H](O)[C@@H]1O [Compound 3, 5-Amino-3-(5′-O-L-valinyl-β-D-ribofuranosyl)thiazolo[4,5-d]pyrimidine-2,7-dione Dihydrochloride]
[1]; [9]
  Emesis or loose stool: Neg.
  GI lesions or irritation: Neg.
[1]; [10]
  Emesis or loose stool: Neg.
  GI lesions or irritation: Neg.
[1]; [11]
  Emesis or loose stool: Neg.
  GI lesions or irritation: Neg.
[1]; [12]
  Emesis or loose stool: Neg.
  GI lesions or irritation: Neg.
[1]; oral val-isatoribine, 130 mg/kg isatoribine equivalent applied dose
  GI lesions or irritation: Neg.
[1]; oral val-isatoribine, 260 mg/kg isatoribine equivalent applied dose
  GI lesions or irritation: Neg.
[1]; oral val-isatoribine, 390 mg/kg isatoribine equivalent applied dose
  GI lesions or irritation: Neg.
[1]; orally administered val-isatoribine
  GI lesions (result in words): No GI lesions were found
[6]
  maximum concentrations of isatoribine after oral dosing compared to isatoribine itself: at least doubled
[2]; mice dosed orally with val-isatoribine in bicarbonate, equivalent to 50 mg/kg isatoribine
  interferon in plasma (result in words): interferon was readily measurable at 1.0 hour, 1.5 hours, and 2.0 hours after dosing
[2]
  mice with detectable interferon in plasma, of the mice used: 10 of the 30
[2]; mice, oral dosing, Tables 1-3
  increase of the magnitude of both the average and peak interferon response over isatoribine: twofold

## Nc1nc(NC2CCCC2)c2sc(=O)n([C@@H]3O[C@H](CO)[C@@H](O)[C@H]3O)c2n1 [Compound 22, 5-Amino-7-cyclopentylamino-3-β-D-ribofuranosylthiazolo[4,5-d]pyrimidin-2-one]
other
  melting point: > 108 °C (dec.)

## CC(C)[C@H](N)C(=O)OC[C@H]1O[C@@H](n2c(=O)sc3c(O)nc(N)nc32)[C@H](O)[C@@H]1O (as salt: hydrochloride) [Compound 3, 5-Amino-3-(5′-O-L-valinyl-β-D-ribofuranosyl)thiazolo[4,5-d]pyrimidine-2,7-dione Dihydrochloride]
other
  melting point: 166 to 168 °C (dec.)

## Nc1nc(N)c2sc(=O)n([C@@H]3O[C@H](CO)[C@@H](O)[C@H]3O)c2n1 [Compound 15, 5,7-Diamino-3-β-D-ribofuranosylthiazolo[4,5-d]pyrimidin-2-one]
other
  melting point: > 155 °C (dec.)

## CC(=O)O[C@@H]1[C@H](OC(C)=O)[C@@H](CO)O[C@H]1n1c(=O)sc2cnc(N)nc21 [Compound 89, 5-Amino-3-(2′,3′-di-O-acetyl-β-D-ribofuranosyl)-3H-thiazolo[4,5-d]pyrimidin-2-one]
[5]
  Monkey Hepatocytes: 45%
  conversion to 1 compared with 79 (result in words): more extensively converted to 1 than is 79
Caco-2 cells
  Caco2 transport compared with 79 (result in words): significantly improved transport over 79

## Nc1ncc2sc(=O)n([C@@H]3O[C@H](CO)[C@@H](O)[C@H]3O)c2n1 [Compound 79, 5-Amino-3-β-D-ribofuranosyl-3H-thiazolo-[4,5-d]pyrimidin-2-one]
other
  melting point: 220 °C (dec.)
[5]
  Monkey Hepatocytes: 10%

## COc1nc(N)nc2c1sc(=O)n2[C@@H]1O[C@H](CO)[C@@H](O)[C@H]1O [Compound 14, 5-Amino-3-β-D-ribofuranosyl-7-methoxy-thiazolo[4,5-d]pyrimidin-2-one]
other
  melting point: > 160 °C (dec.)

## CN(C)c1nc(N)nc2c1sc(=O)n2[C@@H]1O[C@H](CO)[C@@H](O)[C@H]1O [Compound 20, 5-Amino-7-dimethylamino-3-β-D-ribofuranosylthiazolo[4,5-d]pyrimidin-2-one]
other
  melting point: > 112 °C
